Like-named read-outs stand apart in the source and are kept apart here.
Legend:
[1] = biological target: T1, RPE65 (Bos taurus, UniProt Q28175); test: In vitro retinol isomerase (isomerohydrolase, IMH) assay with bovine RPE microsomes; assay type: biochemical
T1 construct: Bovine RPE microsomes were prepared as described previously; from tissue; host or cells: bovine retinal pigment epithelium (RPE) microsomes
Experimental: FIG. 2. Inhibition of the RPE65 isomerase activity by RPE65-61. Bovine RPE microsomes (20 μg) were incubated with 0.2 μM of all-trans-[3H]-retinol in the presence or absence of RPE65-61 for 1 h at 37° C. The generated retinoids were analyzed by HPLC coupled with flow scintillation analyzer. (FIG. 2A) HPLC elution profile without inhibitor; (FIG. 2B) with 375 nM of RPE65-61. Peak 1, retinyl esters; Peak 2, 11-cis-retinol; Peak 3 all-trans-retinol.
All-trans [11,12-^3H]-retinol (1 mCi/ml, 45.5 Ci/mmol, Perkin Elmer, Boston, MA) in N,N-dimethyl formamide (DMF) was used as the substrate for the isomerohydrolase assay. Bovine RPE microsomes were prepared as described previously. For each reaction, 25 μg microsomal proteins from the bovine RPE were added into 200 μl of reaction buffer (10 mM BTP, pH 8.0, 100 mM NaCl) containing 0.2 μM of all-trans retinol, 1% BSA and 25 μM of cellular retinaldehyde-binding protein (CRALBP). For the inhibition of isomerase activity, RPE65-61 dissolved in the DMF was added to the reaction prior to addition of all-trans retinol. The reaction was stopped and retinoids extracted with 300 μl of cold methanol and 300 μl of hexane and centrifuged at 10,000×g for 5 min. The upper layer was collected and the generated retinoids were analyzed by normal phase HPLC as described (Moiseyev, G. et al. 2003). […] The isomerohydrolase activity was calculated from the area of the 11-cis retinol peak using Radiomatic 610TR software (Perkin Elmer, Boston, MA) with synthetic 11-cis [^3H]-retinol as a standard. […] The retinoid profile after completion of the reaction was analyzed by HPLC where the peaks were identified by co-elution with retinoid standards. The RPE65 isomehydrolase activity was calculated based on the 11-cis retinol peak area as described (Moiseyev, G. et al. 2005; Nikolaeva, O. et al. 2009). […] The inhibition constant for RPE65-61 was calculated from the following equation: Ki=[I]/([…]) where [I] is concentration of inhibitor, Vm is maximal velocity in the absence of the inhibitor, and Vmi is maximal velocity in the presence of the inhibitor.

[2] = system: retina; test: Light-induced retinal damage (LIRD); assay type: in vivo, BALB/c mice; conditions: 2 mg/kg, 10,000 lux 3 hr, 5 days post-LIRD
Experimental: FIG. 5. LIRD caused the degeneration in the retina and RPE, which was rescued by inhibitor at the dose of 2 mg/kg in BALB/c mice. (FIG. 5A) Representative histological analysis for the retinas of RPE65-61 injected mice 5 days post-LIRD. Retinal cross-sections of No LIRD Control, LIRD+Vehicle, and LIRD+inhibitor RPE65-61 from three groups were stained with H&E for morphological comparison, 40× magnification. (FIG. 5B) Representative OCT images of mice treated with RPE65-61. […] RPE: retinal pigment epithelium; IS: inner segment; OS: outer segment; ONL: outer nuclear layer; OPL: outer plexiform layer; INL: inner nuclear layer; IPL: inner plexiform layer; RNFL: retinal nerve fiber layer. Bars represent mean±SEM. with n=8 per group. Student's t-test. *P<0.05, **<0.01 and ***<0.001, ****<0.0001.
FIG. 6. […] (FIGS. 6A-B) Shown are representative images of the Western blot detection of rhodopsin protein expression and the correlating quantifications. (FIGS. 6C-D) Cone density was evaluated by immunofluorescence, representative confocal images of immunofluorescence labeling with Peanut Agglutinin Lectin (PNA) and the correlating quantifications, 40× magnification. […]
Mice were dark-adapted overnight with food and water ad libitum. […] The mice were returned to regular housing for 5 days and then the retinal damage was assessed. […]

T1 sequence (Q28175 whole entry): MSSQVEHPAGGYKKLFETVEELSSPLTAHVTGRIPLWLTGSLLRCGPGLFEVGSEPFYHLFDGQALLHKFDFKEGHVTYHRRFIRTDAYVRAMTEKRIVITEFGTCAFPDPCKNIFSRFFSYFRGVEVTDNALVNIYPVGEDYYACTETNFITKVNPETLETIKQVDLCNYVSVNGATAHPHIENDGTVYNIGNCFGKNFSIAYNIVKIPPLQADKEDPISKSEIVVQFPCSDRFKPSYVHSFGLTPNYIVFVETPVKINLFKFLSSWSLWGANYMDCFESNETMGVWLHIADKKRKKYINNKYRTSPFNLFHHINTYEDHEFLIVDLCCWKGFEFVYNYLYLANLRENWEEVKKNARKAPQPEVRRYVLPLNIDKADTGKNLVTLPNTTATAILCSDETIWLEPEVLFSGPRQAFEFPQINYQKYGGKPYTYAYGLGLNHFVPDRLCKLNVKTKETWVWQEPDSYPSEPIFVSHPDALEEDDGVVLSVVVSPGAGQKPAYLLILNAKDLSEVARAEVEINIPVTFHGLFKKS

**Q.** For `N=S(=O)(CCN)c1cccc(OCC2CCCCC2)c1` (racemic) [RPE65-61, (±)-(2-aminoethyl) (3-(cyclohexylmethoxy)phenyl) (imino)-λ^6-sulfanone], which “RPE65 inhibition, in words” value [1] is on record?
**A.** effectively inhibit

**Q.** What about the IC50 ([1]; bovine RPE microsomes, 0.2 μM all-trans-[3H]-retinol, read-out: apparent IC50, RPE65 isomerase activity) of the same compound?
**A.** 80 nM

**Q.** What about the IC50 ([1]; read-out: IC50 in the primary IMH / RPE65 inhibition assay) of the same compound?
**A.** 95 nM

**Q.** What about the “effect against LIRD (histology, ERG)” value [2] of the same compound?
**A.** protective effect

From US20240245647A1, “ISOMEROHYDROLASE INHIBITOR FOR TREATMENT OF ATROPHIC FORM OF AGE-RELATED MACULAR DEGENERATION AND STARGARDT DISEASE” (The Trustees of Columbia University in the City of New York, priority 2021, published 2024)
